Test systems include ACHN renal; KM12 colon; OVCAR-4 ovarian; RXF 393 renal; SK-MEL-28 melanoma; SN12C renal; SNB-19 CNS; SNB-75 CNS; UO-31 renal; T-47D breast.
Holding throughout (experiment): NCI anticancer screen, dose series, 48 h

Structures are written as SMILES.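 48-hour exposure; five concentrations; linearly interpolated endpoints. Here, GI50 denotes the concentration required for 50% inhibition of growth. TGI marks complete inhibition of growth.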

These results are taken from PubChem BioAssay (NCI).

In the case of `CCC(C(=O)[O-])C(=O)[O-].CCC(C(=O)[O-])C(=O)[O-].N.N.NCCCCCCN.[Pt+4].[Pt+4]`, the GI50 in the assay on ACHN renal was 6770 nM; in the assay with KM12 colon, 8830 nM; in the assay on OVCAR-4 ovarian, 5850 nM; with RXF 393 renal, 4490 nM; in the assay on SK-MEL-28 melanoma, 6580 nM; in the assay with SN12C renal, 8660 nM. Further, the GI50 was 10.3 µM in the assay with SNB-19 CNS, 9850 nM in the assay on SNB-75 CNS and 7060 nM with UO-31 renal. Further, the TGI was 13.4 µM in the assay with ACHN renal; 16.8 µM with KM12 colon; 13 µM with OVCAR-4 ovarian; 10.1 µM in the assay with RXF 393 renal; 14.6 µM in the assay on SK-MEL-28 melanoma; 17.1 µM in the assay on SN12C renal. Also, the TGI turned out to be 21.9 µM in the assay with SNB-19 CNS, 20.4 µM in the assay on SNB-75 CNS and 13.6 µM in the assay with UO-31 renal.
As to `OC(c1ccccn1)C1CNc2ccccc21` (stereo not drawn), the TGI with ACHN renal, in the assay on KM12 colon, in the assay on OVCAR-4 ovarian, in the assay with RXF 393 renal, in the assay with SK-MEL-28 melanoma and with SN12C renal was over 100 µM each time. The TGI with SNB-19 CNS, in the assay on SNB-75 CNS and in the assay on UO-31 renal was over 100 µM throughout.
Take `Cc1ccc2[nH]c3c(ncc4[nH]c5ccccc5c43)c2c1`: the TGI worked out at 30.3 µM with ACHN renal; 29.6 µM in the assay with KM12 colon; 37.9 µM with OVCAR-4 ovarian; 27.2 µM in the assay on RXF 393 renal; 32 µM in the assay with SK-MEL-28 melanoma; 30.2 µM in the assay on SN12C renal. Also, the TGI with SNB-19 CNS turned out to be 31.6 µM; with SNB-75 CNS it was 28.5 µM; with UO-31 renal it was 30.3 µM.
Turning to `COc1cc(-c2cc(=O)c3cc(C)c(C)c(C(=O)O)c3o2)cc(OC)c1OC`, the TGI in the assay with ACHN renal, in the assay with KM12 colon, in the assay on OVCAR-4 ovarian, in the assay with SK-MEL-28 melanoma, in the assay with SN12C renal and in the assay on SNB-19 CNS was over 100 µM each time. Further, the figures for the TGI in the assay with SNB-75 CNS and with UO-31 renal were 55.9 µM and over 100 µM, respectively.
Regarding `COC12CC(=O)C(C(C)=O)=C(O)C1(C)c1c(OC(C)=O)c(C)c(O)c(C(C)=O)c1O2` (stereo not drawn), the TGI was 99.2 µM in the assay with ACHN renal; over 100 µM in the assay with KM12 colon; over 100 µM in the assay with OVCAR-4 ovarian; 62.5 µM with RXF 393 renal; over 100 µM with SK-MEL-28 melanoma; 64.7 µM in the assay on SN12C renal. For the same compound, the TGI was over 100 µM in the assay with SNB-19 CNS, 80.6 µM with SNB-75 CNS and 33 µM in the assay on UO-31 renal.
In the case of `CC1=C(c2cc(C(=O)Nc3cccc(C(F)(F)F)c3)ncn2)Sc2ccccc2N1`, the TGI in the assay with ACHN renal, in the assay on KM12 colon, in the assay with OVCAR-4 ovarian, in the assay with SK-MEL-28 melanoma, in the assay on SN12C renal and with SNB-19 CNS was over 100 µM throughout. For the same compound, the TGI in the assay on SNB-75 CNS and with UO-31 renal was over 100 µM in each case.
On to `O=C(CC(=O)C1CCOC1=O)C(=O)Nc1ccc(Cl)cc1Cl` (stereo not drawn), for which the TGI in the assay with ACHN renal, in the assay with KM12 colon, in the assay with OVCAR-4 ovarian, in the assay on RXF 393 renal, in the assay with SK-MEL-28 melanoma and with SN12C renal was over 100 µM each time. For the same compound, the TGI with SNB-19 CNS, with SNB-75 CNS and with UO-31 renal was over 100 µM throughout.
Turning to `O=C(NNC(=O)c1cc(/C=C/c2cccc([N+](=O)[O-])c2)[nH]c(=S)n1)Nc1ccc(Cl)cc1`, the TGI with ACHN renal, with KM12 colon, in the assay on RXF 393 renal, in the assay on SK-MEL-28 melanoma, in the assay with SN12C renal and in the assay on SNB-75 CNS was over 100 µM in each case. In the assay on UO-31 renal, the TGI is over 100 µM.
As for `CC(=O)OCC1O[C@@H]([S-])C(OC(C)=O)[C@H](OC(C)=O)[C@@H]1OC(C)=O.[Au+].c1ccc(CN2[CH-]N(Cc3ccccc3)C(c3ccccc3)=C2c2ccccc2)cc1`, the GI50 in the assay with ACHN renal is 1820 nM; in the assay on KM12 colon it was 2090 nM; with OVCAR-4 ovarian, 1400 nM; in the assay on RXF 393 renal, 1630 nM; with SK-MEL-28 melanoma it was 1640 nM; in the assay with SN12C renal it was 2220 nM. Besides, the GI50 in the assay with SNB-75 CNS was 1370 nM; with UO-31 renal, 1950 nM. Moreover, the TGI with ACHN renal amounted to 3.51 µM; with KM12 colon, 4.27 µM; in the assay with OVCAR-4 ovarian, 3.15 µM; in the assay with RXF 393 renal it was 3.51 µM; in the assay on SK-MEL-28 melanoma, 3.21 µM; in the assay with SN12C renal, 5.58 µM. Also, the TGI was determined as 2.68 µM with SNB-75 CNS and 4.47 µM with UO-31 renal.
`CCC[CH2][Sn]([CH2]CCC)([O]C(=O)C1CCC(=O)N1)[O]C(=O)C1CCC(=O)N1` (stereo not drawn): the GI50 was 220 nM in the assay with ACHN renal; 496 nM with KM12 colon; 376 nM in the assay on OVCAR-4 ovarian; 300 nM in the assay with RXF 393 renal; 258 nM in the assay with SK-MEL-28 melanoma; 341 nM with SN12C renal. For the same compound, the GI50 in the assay with SNB-19 CNS was 0.303 µM; in the assay with SNB-75 CNS, 221 nM; in the assay on UO-31 renal, 711 nM. Also, the TGI in the assay on ACHN renal was 0.512 µM; with KM12 colon, 1.73 µM; in the assay on OVCAR-4 ovarian it was 1.71 µM; with RXF 393 renal, 0.473 µM; in the assay on SK-MEL-28 melanoma, 0.654 µM; in the assay with SN12C renal, 1.2 µM. The TGI in the assay on SNB-19 CNS was determined as 0.909 µM; in the assay on SNB-75 CNS, 0.752 µM; with UO-31 renal it was 1.98 µM.
`Cc1ccc(C)c(NC(=O)CCc2nc(=S)[nH][nH]2)c1`: the TGI in the assay with ACHN renal, in the assay with KM12 colon, in the assay with OVCAR-4 ovarian, with RXF 393 renal, in the assay on SK-MEL-28 melanoma and in the assay with SN12C renal was over 100 µM each time. For the same compound, the TGI in the assay with SNB-19 CNS, with SNB-75 CNS and in the assay with UO-31 renal was over 100 µM in each case.
With `CC/C(C)=C1\OC(=O)C(C)C(O)C(Cc2cccnc2)NC(=O)C(NC(=O)c2ncccc2O)C(C)OC1=O` (stereo not drawn), the TGI in the assay with ACHN renal, in the assay on KM12 colon, in the assay with OVCAR-4 ovarian, in the assay with SK-MEL-28 melanoma, with SN12C renal and with SNB-19 CNS was over 100 µM each time. Further, the TGI in the assay on SNB-75 CNS and in the assay with T-47D breast was over 100 µM each time.
